Assay results as given in publication PMC11597817, “Modulation of Multispecific Transporters by Uncaria tomentosa Extract and Its Major Phytoconstituents” (Pharmaceutics, 2024).
Read-outs that look alike come from different tables or passages of the source.

Assays:
OAT3 = target: T1, OAT3 (Homo sapiens, UniProt Q8TCC7); assay: Uptake inhibition assay, OAT3-overexpressing HEK293 cells; type: cell-based; settings: oxindole alkaloids, substrate E3S, read-out: IC50 (95% CI of IC50)
T1 construct: expressed in transfected cells; host or cells: HEK293 (lentiviral transduction; cDNA synthesised by GenScript)
T1 sequence (Q8TCC7 whole entry): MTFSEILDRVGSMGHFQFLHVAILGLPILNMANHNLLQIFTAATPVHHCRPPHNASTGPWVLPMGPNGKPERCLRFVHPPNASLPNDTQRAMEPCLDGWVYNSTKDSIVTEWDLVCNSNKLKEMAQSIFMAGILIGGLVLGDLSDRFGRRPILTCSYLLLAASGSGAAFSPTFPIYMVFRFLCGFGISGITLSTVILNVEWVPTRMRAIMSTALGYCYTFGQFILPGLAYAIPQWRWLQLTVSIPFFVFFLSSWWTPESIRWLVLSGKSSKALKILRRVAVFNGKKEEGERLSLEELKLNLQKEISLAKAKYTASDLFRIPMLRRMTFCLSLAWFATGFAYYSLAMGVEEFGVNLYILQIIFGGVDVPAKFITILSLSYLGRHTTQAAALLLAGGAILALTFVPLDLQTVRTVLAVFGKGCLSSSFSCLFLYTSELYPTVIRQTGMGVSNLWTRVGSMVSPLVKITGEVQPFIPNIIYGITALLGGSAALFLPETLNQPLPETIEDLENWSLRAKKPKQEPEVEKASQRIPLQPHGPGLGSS
Procedure: (§1) The human embryonic kidney 293 (HEK293) cell line was purchased from Invitrogen/ThermoFisher (Waltham, MA, USA). Madin–Darby canine kidney II (MDCKII) wild type cells were obtained from the European Collection of Authenticated Cell Cultures (ECACC catalog no. 00062107). […]
(§2) Plated cells were preincubated with a transport buffer (HBSS) containing 30 or 150 µg/mL of UT extract or 100 µM of isopteropodine, mitraphylline, or uncarine D for 15 min at an appropriate temperature. […] For radiolabeled substrates, accumulation was measured by liquid scintillation counting (MicroBeta Scintillation Counter, PerkinElmer).
(§3) The transporter-mediated uptake and ATP-dependent transport were determined by subtracting the activity of the control cell/transporter abundant-membrane in the presence of AMP from the activity of the transporter-overexpressing cell/transporter-abundant membrane in the presence of ATP. The relative transporter-specific accumulation was expressed as the percent of DMSO activity. […] Confidence intervals (CIs) of 95% were also determined. […]

OATP2B1 = target: T2, OATP2B1 (Homo sapiens, UniProt O94956); assay: Uptake inhibition assay, OATP2B1-overexpressing HEK293 cells; type: cell-based; settings: oxindole alkaloids, substrate E3S, read-out: IC50 (95% CI of IC50)
T2 construct: expressed in transfected cells; host or cells: HEK293 (lentiviral transduction; cDNA synthesised by GenScript)
T2 sequence (O94956 whole entry): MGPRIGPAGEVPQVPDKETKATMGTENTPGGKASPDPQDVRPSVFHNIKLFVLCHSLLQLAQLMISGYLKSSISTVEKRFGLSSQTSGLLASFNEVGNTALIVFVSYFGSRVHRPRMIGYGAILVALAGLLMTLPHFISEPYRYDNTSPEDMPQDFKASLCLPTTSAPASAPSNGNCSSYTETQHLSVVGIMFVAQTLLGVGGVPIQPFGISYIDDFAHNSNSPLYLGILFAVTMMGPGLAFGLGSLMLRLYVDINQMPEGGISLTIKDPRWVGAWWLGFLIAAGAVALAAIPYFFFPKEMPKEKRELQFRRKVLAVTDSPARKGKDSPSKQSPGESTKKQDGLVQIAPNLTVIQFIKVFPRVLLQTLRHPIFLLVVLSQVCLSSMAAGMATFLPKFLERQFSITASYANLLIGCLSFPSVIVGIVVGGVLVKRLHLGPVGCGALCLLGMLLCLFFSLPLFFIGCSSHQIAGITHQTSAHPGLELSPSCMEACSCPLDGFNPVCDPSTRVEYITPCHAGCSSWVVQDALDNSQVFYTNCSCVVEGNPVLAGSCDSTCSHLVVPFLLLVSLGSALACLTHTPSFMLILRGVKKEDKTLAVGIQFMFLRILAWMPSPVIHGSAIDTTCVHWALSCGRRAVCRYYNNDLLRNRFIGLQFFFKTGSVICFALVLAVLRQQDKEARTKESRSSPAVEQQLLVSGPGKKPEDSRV
Procedure: as §1, §2, §3

OCT2 = target: T3, OCT2 (Homo sapiens, UniProt O15244); assay: Uptake inhibition assay, OCT2-overexpressing HEK293 cells; type: cell-based; settings: oxindole alkaloids; substrate metformin; read-out: IC50 (95% CI of IC50)
T3 construct: expressed in transfected cells; host or cells: HEK293 (lentiviral transduction; cDNA synthesised by GenScript)
T3 sequence (O15244 whole entry): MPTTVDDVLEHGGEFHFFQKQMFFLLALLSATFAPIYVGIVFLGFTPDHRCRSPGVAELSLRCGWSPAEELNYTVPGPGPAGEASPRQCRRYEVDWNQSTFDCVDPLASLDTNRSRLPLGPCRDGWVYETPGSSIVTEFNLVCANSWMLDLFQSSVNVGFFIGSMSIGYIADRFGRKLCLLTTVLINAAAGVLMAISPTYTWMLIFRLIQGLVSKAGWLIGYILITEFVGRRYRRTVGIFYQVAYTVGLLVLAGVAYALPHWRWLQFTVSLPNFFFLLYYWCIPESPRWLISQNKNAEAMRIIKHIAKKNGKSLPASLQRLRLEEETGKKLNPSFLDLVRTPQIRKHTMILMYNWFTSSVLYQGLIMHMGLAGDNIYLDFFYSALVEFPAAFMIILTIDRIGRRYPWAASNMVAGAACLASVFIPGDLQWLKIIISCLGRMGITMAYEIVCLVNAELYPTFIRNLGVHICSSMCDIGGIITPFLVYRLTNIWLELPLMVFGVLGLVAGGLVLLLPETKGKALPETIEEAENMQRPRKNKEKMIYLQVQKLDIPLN
Procedure: as §1, §2, §3

ENT4 = target: T4, ENT4 (Homo sapiens, UniProt Q7RTT9); assay: Uptake inhibition assay, ENT4-overexpressing HEK293 cells; type: cell-based; settings: 100 µM alkaloid
T4 construct: expressed in transfected cells; host or cells: HEK293 (lentiviral transduction; cDNA synthesised by GenScript)
T4 sequence (Q7RTT9 whole entry): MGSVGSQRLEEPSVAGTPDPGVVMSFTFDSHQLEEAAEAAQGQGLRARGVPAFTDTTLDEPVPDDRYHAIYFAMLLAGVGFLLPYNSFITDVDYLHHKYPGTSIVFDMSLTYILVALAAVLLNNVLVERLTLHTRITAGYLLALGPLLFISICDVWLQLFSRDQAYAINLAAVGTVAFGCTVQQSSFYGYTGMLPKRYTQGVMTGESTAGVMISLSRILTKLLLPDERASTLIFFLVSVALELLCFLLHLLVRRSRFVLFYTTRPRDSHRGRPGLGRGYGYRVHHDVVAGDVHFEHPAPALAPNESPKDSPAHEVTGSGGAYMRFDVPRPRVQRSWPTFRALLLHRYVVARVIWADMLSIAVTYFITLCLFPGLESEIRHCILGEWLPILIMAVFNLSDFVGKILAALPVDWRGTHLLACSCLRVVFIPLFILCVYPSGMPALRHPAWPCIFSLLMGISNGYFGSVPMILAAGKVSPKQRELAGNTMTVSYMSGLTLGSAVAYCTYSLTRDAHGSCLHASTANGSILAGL
Procedure: as §1, §2, §3

MDR1 = settings: MDR1-overexpressing MDCKII cells and Caco-2 cells; cited from earlier work

Compound	IC50 (OAT3; listed as Isopteropodine)	IC50 (OAT3)	IC50 (OATP2B1; listed as Isopteropodine)	IC50 (OATP2B1)	IC50 (OCT2)	inhibitory effect on transporter-specific transport (ENT4)	MDR1 substrate status (MDR1)
COC(=O)C1=CO[C@@H](C)[C@@H]2CN3CC[C@@]4(C(=O)Nc5ccccc54)[C@@H]3C[C@H]12 [isopteropodine]	46.5 µM	46.5 µM	45.4 µM	45.4 µM	16.1 µM	significantly inhibited	
COC(=O)C1=CO[C@@H](C)[C@H]2CN3CC[C@]4(C(=O)Nc5ccccc54)[C@@H]3C[C@H]12 [mitraphylline]							MDR1 substrate
